Molecular target: Serine/threonine-protein kinase PAK 1 (Homo sapiens, UniProt Q13153)
Test: Inhibition of human recombinant PAK1 assessed as phosphorylation FRET peptide substrate measured after 60 mins

Serine/threonine-protein kinase PAK 1, sequence (Q13153 whole entry): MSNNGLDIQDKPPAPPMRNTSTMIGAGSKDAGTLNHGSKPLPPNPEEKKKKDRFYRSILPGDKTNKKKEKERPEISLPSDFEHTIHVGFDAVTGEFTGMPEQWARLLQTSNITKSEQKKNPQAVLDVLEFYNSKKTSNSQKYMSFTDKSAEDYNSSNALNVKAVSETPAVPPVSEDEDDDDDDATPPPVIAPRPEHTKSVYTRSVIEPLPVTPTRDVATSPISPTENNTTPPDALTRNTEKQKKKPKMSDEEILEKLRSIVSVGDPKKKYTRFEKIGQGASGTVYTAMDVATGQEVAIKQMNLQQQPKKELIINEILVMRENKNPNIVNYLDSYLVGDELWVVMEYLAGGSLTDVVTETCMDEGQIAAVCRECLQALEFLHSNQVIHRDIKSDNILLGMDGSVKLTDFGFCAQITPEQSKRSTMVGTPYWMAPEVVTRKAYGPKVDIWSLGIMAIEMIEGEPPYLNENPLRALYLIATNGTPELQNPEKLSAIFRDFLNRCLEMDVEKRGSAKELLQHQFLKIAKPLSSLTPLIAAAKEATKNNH

CN1C(=O)CCC(N2C(=O)c3cccc(NCCCCCCCCNC(=O)N4CC[C@H](NC5=Nc6cc(F)ccc6N(CC(F)F)c6ccc(Cl)cc65)C4)c3C2=O)C1=O (stereo partly specified)
IC50: 233 nM

From BindingDB's records for PubMed 36416208 (n/a, 2022)
